Measurements as given in patent US8703787B2, “Methods of using ALK inhibitors” (IRM LLC, priority 2011, dated 2014).

Legend:
[1] = test system: NCI-H2228 cells; experiment: In vitro cell growth and proliferation (luciferase readout); assay type: cell-based; details: Homo sapiens, 72 h; NCI-H2228 with EML4-ALK, luciferase-expressing, 3 days incubation
Experimental: NCI-H2228 cells were obtained from the American Type Culture Collection (ATCC) (Manassa, USA) and modified by viral infection to stably express luciferase. For cell growth and proliferation assays, 2250 cells in 50 μL of RPMI media (Gibco, Carlsbad, Calif.) containing 10% fetal bovine serum (FBS) (Gibco, Carlsbad, Calif.) were plated into solid bottom, white 384-well plates (Corning, Acton, Mass.) using μ-Fill instrumentation (Bio-Tek). Plates were incubated 1 hour in a 37° C. tissue culture incubator prior to the addition of compound using MiniTrak instrumentation (Perkin-Elmer). 50 nL of a 1:3 dilution plate of compounds was added to the assay plates, resulting in final concentrations of 10000, 3333, 1111, 370, 123, 41, 14, 4.6, 1.5, 0.5 and 0.17 nM. After compound addition, plates were incubated for 3 days at 37° C. in a tissue culture incubator. At day 3, plates were assayed for cell growth and proliferation by means of measuring luciferase activity in each individual well. In detail, 25 μL of BRIGHT-GLO® (Promega, Madison, Wis.) or BRITELITE™ (PerkinElmer, Waltham, Mass.) was added to each well. After 10 minutes of incubation at room temperature, plates were read using either an Analyst-GT or an Envision plate reader (Molecular Devices, Sunnyvale, Calif.). […]

[2] = 4-wk GLP toxicology studies / exposure comparison; assay type: in vivo; details: based on 4-wk GLP toxicology studies, predicted
[3] = test system: crizotinib resistant NCI-H2228 tumors; experiment: Anti-tumor activity in crizotinib resistant NCI-H2228 xenograft tumors; assay type: in vivo, mouse
Experimental: The mouse xenograft tumors derived from NCI-H2228 were treated with crizotinib continuously at 50 mg/kg for 9 days, then 75 mg/kg for 9 days and then 100 mg/kg for 33 days. Alternatively, after xenograft tumors derived from NCI-H2228 were treated with crizotinib for 14 days at 100 mg/kg, the treatment with crizotinib was stopped for a few days until tumors re-grew. Once tumors re-grew, animals were treated with crizotinib at 100 mg/kg until tumors became resistant to crizotinib treatment. Tumors from individual animal were harvested when they became resistant to crizotinib. A few such resistant tumors were randomly selected for further studies as described below. Each resistant tumor were cut into small pieces at harvest and implanted into 5 animals; when tumor size was big enough in the 5 animals, the tumors were harvested and then implanted into 25 animals for compound testing. A piece of harvested tumors was also used for RNA extraction and subsequently sequencing of EML4-ALK transcript.

[4] = test system: NCI-H2228 tumors; experiment: Subcutaneous xenograft tumor model derived from NCI-H2228 cells; assay type: in vivo, mouse
Description: The day of implantation, NCI-H2228 cells were harvested with 0.05% Trypsin/EDTA and resuspended in a mixture of RPMI 1640 serum-free medium and matrigel (BD Biosciences #354234, La Jolla, Calif.) at a ratio of 1:1. Five million cells were subcutaneously implanted into the right hind flank of SCID beige mouse. When the tumor size reached a volume of 300-400 mm3, the tumors were harvested and were cut into smaller pieces of 1-2 mm3 in culture medium for passage implanting subcutaneously. After the tumors were consecutively passaged three times in SCID beige mice, the tumors were considered as stock tumors for study implantation. The tumor pieces were kept in a mixture of RPMI1640 serum-free medium and matrigel at a ratio of 1:1 on wet ice for implanting in SCID beige mice. Implantation in […] mice: 2-3 pieces of the tumor with matrigel mixture were subcutaneously implanted into the right flank of the mice. After implantation, the tumors were callipered 3 times per week once tumors became palpable.
SCID beige mice bearing the H2228 tumors were randomized into 5 groups (n=4 mice per group) with an average tumor volume of 85±35 mm3. The test compound was administered by oral gavage. Its exposure in the tumor bearing female SCID beige mice was evaluated on day 14. Tumor growth was calculated by % T/C as follows: % T/C=(ΔT/ΔC)×100, where ΔT>0; or % T/C=(ΔT/ΔTI)×100, where ΔT<0. Changes in tumor volume (Δ volumes) for each treated (T) and control (C) group were calculated for each day tumors were measured by subtracting the median tumor volume on the day of first treatment (staging day) from the median tumor volume on the specified observation day.

| SMILES | IC50 [1] | exposure associated with 50 mg/kg in mouse relative to exposure at the MTD in humans [2] | anti-tumor growth activity in crizotinib resistant NCI-H2228 ([3]; FIG. 2) | activity compared with crizotinib at 100 mg/kg ([3]; other crizotinib resistant NCI-H2228 tumors, FIG. 3) | animal body weight loss ([4]; dosed orally at 25 mg/kg once a day for 2 weeks) | anti-tumor activity (tumor regression) ([4]; dosed orally at 25 mg/kg once a day for 2 weeks, FIG. 1) | tolerability ([4]; mouse, in vivo, po, 25 mg/kg) |
| --- | --- | --- | --- | --- | --- | --- | --- |
| CC(C)Oc1cc2c(cc1Nc1ncc(Cl)c(Nc3ccccc3S(=O)(=O)C(C)C)n1)C(=O)N(C1CCN(C)CC1)C2 [Compound 6, 6-{5-Chloro-4-[2-(propane-2-sulfonyl)-phenylamino]-pyrimidin-2-ylamino}-5-isopropoxy-2-(1-methyl-piperidin-4-yl)-2,3-dihydro-isoindol-1-one] | 16 nM |  |  |  |  |  |  |
| Cc1cc(Nc2ncc(Cl)c(Nc3ccccc3S(=O)(=O)C(C)C)n2)c(OC(C)C)cc1C1CCNCC1 [Compound 1, 5-chloro-N2-(2-isopropoxy-5-methyl-4-(piperidin-4-yl)phenyl)-N4-[2-(propane-2-sulfonyl)-phenyl]-pyrimidine-2,4-diamine] | 11 nM | below the exposure at the MTD in humans | significant anti-tumor growth activity | better activity than crizotinib | not observed | complete tumor regression | well tolerated |
